Data on two molecules can be found in US20200054682A1, “METHODS AND COMPOSITIONS FOR TREATING MITOCHONDRIAL DISEASE OR DISORDERS AND HETEROPLASMY” (Imel Biotherapeutics, Inc., priority 2018, published 2020).

Entries after “also recorded” stand apart in the source; their conditions may differ.

One assay deals with mtDNA. The experiment in a line: mtDNA copy number by qPCR, MTS-XbaIR versus EtBr, in EPC100 cells. Type of assay: cell-based, human. To be noted: qPCR relative to Actb, EtBr 50 ng/mL, untreated cells 6189.6867. As for the experimental part:
The efficiency and efficacy of the MTS-XbaIR expression vector relative to the conventional method that employs ethidium bromide (EtBr) was evaluated according to the scheme illustrated in FIG. 2A. The placental venous endothelium-derived cell line EPC100 with DsRed labeled mitochondria were cultured in pyruvate-free DMEM (Wako cat #044-29765) with 10% fetal bovine serum (FBS) and 1% penicillin/streptomycin (P/S), and at day 0 the cells were either untreated (“normal”), transfected with the MTS-XbaIR expression vector (“MTS-XbaIR”), or treated with 50 ng/mL of EtBr. At day 1, the cells were cultured in DMEM with 10% FBS, and 1% P/S supplemented with 100 μg/mL pyruvate and 50 μg/mL uridine. […] Cells with this partial reduction of mtDNA were termed as ρ(−) cells.

The next assay has as its system NHDF recipient cells. The experiment in a line: engulfment of DsRed-labeled exogenous mitochondria by FACS with rapamycin or palmitic acid. Type of assay: cell-based, human. Particulars: ρ(−) NHDF cells; rapamycin 50 ng/ml, palmitic acid 50 μM; FACS day 8. As for the experimental part: Rapamycin was added into the culture media at the concentration of 50 ng/ml for 24 hours, and cells were exposed to glucose and essential amino acids free media without serum for 1 hour to simulate starvation. […] The ratio of phosphorylated AMPK to AMPK and phosphorylated p70 S6 kinase to p70 S6 kinase, which is a downstream target of mTORC1, were examined by using capillary electrophoresis, Wes™ (Protein Simple).
Next, we examined the effects of rapamycin and palmitic acid upon mitochondria engulfment by treating the cells with rapamycin or palmitic acid simultaneously during the mitochondria co-cultivation. A scheme of the protocol is illustrated in FIG. 6I. Briefly, the NHDF recipient cells were transfected with the MTS-XbaI expression vector and cultured with or without rapamycin, or with or without palmitic acid (PA). Puromycin selection for ρ(−) cells expressing the MTS-XbaI was performed after 48 hours. On day 6, transfer of isolated mitochondria marked with DsRed from EPC100 cells was performed. On Day8, FACS analyses were performed to detect the donor mitochondria by measuring DsRed expression in the NHDF recipient cells.
(Flow cytometry measures light scatter and fluorescence of single cells or particles in a stream.)

In turn, `CC[n+]1c(-c2ccccc2)c2cc(N)ccc2c2ccc(N)cc21` [EtBr, ethidium bromide] came in with a mtDNA copy number with mtDNA of 5169.1258.
Regarding `CCCCCCCCCCCCCCCC(=O)O` [palmitic acid], in the assay on NHDF recipient cells, the “engulfment of DsRed-labeled isolated exogenous mitochondria” value is on record as “decreased; also recorded: clearly suppressed”.
